Measurements: paper PMC10165273, “Itch receptor MRGPRX4 interacts with the receptor activity–modifying proteins” (The Journal of Biological Chemistry, 2023)
Like-named read-outs stand apart in the source and are kept apart here.

Target: T1, MRGPRX4 (Homo sapiens, UniProt Q96LA9)
T1 construct: expressed in transfected cells; host or cells: HEK293T
Assay: IP1 accumulation HTRF assay, MRGPRX4
Format: cell-based
Settings: 2 h; for activation at 80 µM: log [agonist] (M) -4.09691; for activation at 16 µM: log [agonist] (M) -4.79588; for activation at 3.2 µM: log [agonist] (M) -5.49485; for activation at 0.64 µM: log [agonist] (M) -6.19382; for activation at 0.128 µM: log [agonist] (M) -6.89279; for activation at 0.0256 µM: log [agonist] (M) -7.59176
Protocol: HEK293T cells were transfected with 1 pg/cell of MRGPRX4 DNA, and the amount of DNA was kept constant at 2 pg/cell with pcDNA3.1(+) empty vector, unless otherwise specified. Twenty four hours after transfection, IP1 assay was performed as previously described ([51]). When applicable, cells were treated with 1 μM YM254890 (YM) or different concentrations of U73122 for 1 h prior to addition of agonist or buffer. After incubation for 2 h, HTRF reagents and IP1 calibration standards were added and incubated for 2 h in the dark at room temperature. Time-resolved fluorescence signals were read on the BioTek Synergy NEO-TRF Hybrid multi-mode reader (BioTek Instruments). All data were carried out in three independent experiments with three technical replicate each.
For characterization of the Tet-On Nluc-HT7-MRGPRX4-GFP10-1D4 construct, HEK293T cells were transfected as previously described with some modifications. Dox dose-response of NLuc-HT7-MRGPRX4-GFP10-1D4 DNA titration was assayed by transfecting HEK293T cells with either 1 or 2 pg/cell of NLuc-HT7-MRGPRX4-GFP10-1D4 construct. Receptor expression was induced 4 h after transfection with addition of different concentrations of dox for 20 h. For the RAMP DNA titration assay, cells were cotransfected with a constant amount of 1 pg/cell of NLuc-HT7-MRGPRX4-GFP10-1D4 DNA and 1, 0.75, 0.5, or 0 pg/cell of each HA-RAMP-OLLAS with the homogenous transfection method. Four hours after transfection, receptor expression was induced with addition of 1000 ng/ml dox. Twenty hours after induction, IP1 assay was performed.
Data reduction, standard calibration, and transformation of HTRF data were performed as previously described ([51]). Normalized IP1 values were calculated relative to the unstimulated mock-transfected cells (set to 0%) and fully stimulated MRGPRX4 (alone if applicable) (set to 100%).

[1] = SP-FLAG-Nluc-HT7-MRGX4_Tet-GFP10-1D4, read-out: normalized IP1 accumulation
[2] = SP-FLAG-Nluc-HT7-MRGX4_Tet-GFP10-1D4 no dox, read-out: normalized IP1 accumulation

T1 sequence (Q96LA9 whole entry): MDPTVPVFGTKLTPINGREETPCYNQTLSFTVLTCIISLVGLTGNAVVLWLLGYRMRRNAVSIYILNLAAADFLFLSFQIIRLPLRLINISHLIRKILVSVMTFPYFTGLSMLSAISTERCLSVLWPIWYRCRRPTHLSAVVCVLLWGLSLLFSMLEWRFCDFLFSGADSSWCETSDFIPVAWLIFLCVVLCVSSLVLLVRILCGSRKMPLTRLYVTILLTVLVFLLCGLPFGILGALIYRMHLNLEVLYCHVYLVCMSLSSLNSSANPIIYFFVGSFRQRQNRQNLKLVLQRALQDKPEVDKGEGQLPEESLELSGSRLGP

C[C@H](CCC(=O)O)[C@H]1CC[C@H]2[C@@H]3CC[C@@H]4C[C@H](O)CC[C@]4(C)[C@H]3C[C@H](O)[C@]12C [DCA, deoxycholic acid]
activation at 100 µM (HA-MRGX4-1D4, log [agonist] (M) -4, read-out: normalized IP1 accumulation): 53.9%
activation at 20 µM (HA-MRGX4-1D4, log [agonist] (M) -4.69897, read-out: normalized IP1 accumulation): 34.3%
activation at 4 µM (HA-MRGX4-1D4, log [agonist] (M) -5.39794, read-out: normalized IP1 accumulation): 19.4%
activation at 0.8 µM (HA-MRGX4-1D4, log [agonist] (M) -6.09691, read-out: normalized IP1 accumulation): 12.4%
activation at […] (HA-MRGX4-1D4, log [agonist] (M) -6.79588, read-out: normalized IP1 accumulation): 11.1%
activation at 0.032 µM (HA-MRGX4-1D4, log [agonist] (M) -7.49485, read-out: normalized IP1 accumulation): 11.4%
activation at 100 µM (MRGPRX4: 0.25pg/cell, log [DCA] (M) -4, Fig S1c, read-out: IP1 accumulation): 41.7%
activation at 20 µM (MRGPRX4: 0.25pg/cell, log [DCA] (M) -4.69897, Fig S1c, read-out: IP1 accumulation): 28.7%
activation at 4 µM (MRGPRX4: 0.25pg/cell, log [DCA] (M) -5.39794, Fig S1c, read-out: IP1 accumulation): 10.1%
activation at 100 µM (MRGPRX4: 0.5pg/cell, log [DCA] (M) -4, Fig S1c, read-out: IP1 accumulation): 53.6%
activation at 20 µM (MRGPRX4: 0.5pg/cell, log [DCA] (M) -4.69897, Fig S1c, read-out: IP1 accumulation): 33.8%
activation at 4 µM (MRGPRX4: 0.5pg/cell, log [DCA] (M) -5.39794, Fig S1c, read-out: IP1 accumulation): 14.2%
activation at 0.8 µM (MRGPRX4: 0.5pg/cell, log [DCA] (M) -6.09691, Fig S1c, read-out: IP1 accumulation): 7.76%
activation at […] (MRGPRX4: 0.5pg/cell, log [DCA] (M) -6.79588, Fig S1c, read-out: IP1 accumulation): 7.83%
activation at 0.032 µM (MRGPRX4: 0.5pg/cell, log [DCA] (M) -7.49485, Fig S1c, read-out: IP1 accumulation): 6.46%
activation at 100 µM (MRGPRX4: 1pg/cell, log [DCA] (M) -4, Fig S1c, read-out: IP1 accumulation): 62.8%
activation at 20 µM (MRGPRX4: 1pg/cell, log [DCA] (M) -4.69897, Fig S1c, read-out: IP1 accumulation): 42.9%
activation at 4 µM (MRGPRX4: 1pg/cell, log [DCA] (M) -5.39794, Fig S1c, read-out: IP1 accumulation): 19.8%
activation at 0.8 µM (MRGPRX4: 1pg/cell, log [DCA] (M) -6.09691, Fig S1c, read-out: IP1 accumulation): 13.1%
activation at […] (MRGPRX4: 1pg/cell, log [DCA] (M) -6.79588, Fig S1c, read-out: IP1 accumulation): 10.7%
activation at 0.032 µM (MRGPRX4: 1pg/cell, log [DCA] (M) -7.49485, Fig S1c, read-out: IP1 accumulation): 8.32%
activation at 100 µM (MRGPRX4: 2pg/cell, log [DCA] (M) -4, Fig S1c, read-out: IP1 accumulation): 79.9%
activation at 20 µM (MRGPRX4: 2pg/cell, log [DCA] (M) -4.69897, Fig S1c, read-out: IP1 accumulation): 51.7%
activation at 4 µM (MRGPRX4: 2pg/cell, log [DCA] (M) -5.39794, Fig S1c, read-out: IP1 accumulation): 26.6%
activation at 0.8 µM (MRGPRX4: 2pg/cell, log [DCA] (M) -6.09691, Fig S1c, read-out: IP1 accumulation): 15.7%
activation at […] (MRGPRX4: 2pg/cell, log [DCA] (M) -6.79588, Fig S1c, read-out: IP1 accumulation): 15.1%
activation at 0.032 µM (MRGPRX4: 2pg/cell, log [DCA] (M) -7.49485, Fig S1c, read-out: IP1 accumulation): 14.6%
activation at 100 µM (MRGPRX4: […], log [DCA] (M) -4, Fig S1c, read-out: IP1 accumulation): 38.8%
activation at 20 µM (MRGPRX4: […], log [DCA] (M) -4.69897, Fig S1c, read-out: IP1 accumulation): 21.2%
activation at 4 µM (MRGPRX4: […], log [DCA] (M) -5.39794, Fig S1c, read-out: IP1 accumulation): 7.81%
activation at 0.8 µM (MRGPRX4: […], log [DCA] (M) -6.09691, Fig S1c, read-out: IP1 accumulation): 3.51%
activation at 0.032 µM (MRGPRX4: […], log [DCA] (M) -7.49485, Fig S1c, read-out: IP1 accumulation): 3.48%
activation at 10 µM (MRGPRX4, DCA 10uM, Fig S1d): 28.4%
activation at 100 µM (MRGPRX4, DCA 100uM, Fig S1d, read-out: IP1 accumulation): 60.7%
activation at 100 µM (MRGPRX4 alone, log [DCA] (M) -4, Fig S3d-f, read-out: IP1 accumulation): 100%
activation at 20 µM (MRGPRX4 alone, log [DCA] (M) -4.69897, Fig S3d-f, read-out: IP1 accumulation): 66.8%
activation at 4 µM (MRGPRX4 alone, log [DCA] (M) -5.39794, Fig S3d-f, read-out: IP1 accumulation): 36.1%
activation at 0.8 µM (MRGPRX4 alone, log [DCA] (M) -6.09691, Fig S3d-f, read-out: IP1 accumulation): 26.3%
activation at […] (MRGPRX4 alone, log [DCA] (M) -6.79588, Fig S3d-f, read-out: IP1 accumulation): 23.7%
activation at 0.032 µM (MRGPRX4 alone, log [DCA] (M) -7.49485, Fig S3d-f, read-out: IP1 accumulation): 21.4%
activation at 30 µM (MRGX4 + DCA, U73122 30uM, Fig S1e): 8.48%
activation at 30 µM (MRGX4 + DCA, buffer, Fig S1e): 39.2%
activation at 100 µM (MRGX4 + DCA, 100uM, U73122 30uM, Fig S1e, read-out: IP1 accumulation): 16.7%
activation at 100 µM (MRGX4 + DCA, 100uM, buffer, Fig S1e, read-out: IP1 accumulation): 56.2%
activation at 80 µM [1]: 38.3%
activation at 16 µM [1]: 22.2%
activation at 3.2 µM [1]: 13%
activation at 0.64 µM [1]: 10.2%
activation at 0.128 µM [1]: 9.26%
activation at 0.0256 µM [1]: 9.64%
activation at 80 µM [2]: 9.13%
activation at 16 µM [2]: 7.51%
activation at 3.2 µM [2]: 9.25%
activation at 0.64 µM [2]: 7.7%
activation at 0.128 µM [2]: 7.77%
activation at 0.0256 µM [2]: 7.55%
activation at 100 µM (SP-Flag-MRGX4-1D4, log [agonist] (M) -4, read-out: normalized IP1 accumulation): 65.9%
activation at 20 µM (SP-Flag-MRGX4-1D4, log [agonist] (M) -4.69897, read-out: normalized IP1 accumulation): 34.9%
activation at 0.8 µM (SP-Flag-MRGX4-1D4, log [agonist] (M) -6.09691, read-out: normalized IP1 accumulation): 9.9%
activation at […] (SP-Flag-MRGX4-1D4, log [agonist] (M) -6.79588, read-out: normalized IP1 accumulation): 8.52%
activation at 0.032 µM (SP-Flag-MRGX4-1D4, log [agonist] (M) -7.49485, read-out: normalized IP1 accumulation): 6.84%
activation at 100 µM (SP-Flag-MRGX4-GFP10-1D4, log [agonist] (M) -4, read-out: normalized IP1 accumulation): 66.1%
activation at 20 µM (SP-Flag-MRGX4-GFP10-1D4, log [agonist] (M) -4.69897, read-out: normalized IP1 accumulation): 33.2%
activation at 4 µM (SP-Flag-MRGX4-GFP10-1D4, log [agonist] (M) -5.39794, read-out: normalized IP1 accumulation): 15.5%
activation at 0.8 µM (SP-Flag-MRGX4-GFP10-1D4, log [agonist] (M) -6.09691, read-out: normalized IP1 accumulation): 8.34%
activation at […] (SP-Flag-MRGX4-GFP10-1D4, log [agonist] (M) -6.79588, read-out: normalized IP1 accumulation): 7.34%
activation at 0.032 µM (SP-Flag-MRGX4-GFP10-1D4, log [agonist] (M) -7.49485, read-out: normalized IP1 accumulation): 7.17%
activation at 100 µM (log [agonist] (M) -4, MRGX4-transfected, individual replicates, read-out: IP1 accumulation, dose-response (Figure 1a)): 67.6%
activation at 11.111 µM (log [agonist] (M) -4.95424, MRGX4-transfected, individual replicates, read-out: IP1 accumulation, dose-response (Figure 1a)): 33.9%
activation at 1.2346 µM (log [agonist] (M) -5.90849, MRGX4-transfected, individual replicates, read-out: IP1 accumulation, dose-response (Figure 1a)): 14.9%
activation at 0.13717 µM (log [agonist] (M) -6.86273, MRGX4-transfected, individual replicates, read-out: IP1 accumulation, dose-response (Figure 1a)): 10.6%
